According to patent US8012941B2, “Carba-nucleoside analogs for antiviral treatment” (Gilead Sciences, Inc., priority 2008, dated 2011):
Read-outs that look alike come from different tables or passages of the source.

Key:
HCV replicon cells = test: HCV EC50 determination: replicon cells, luciferase readout; format: cell-based; conditions: Hepatitis C virus, 72 h
Method: Replicon cells were seeded in 96-well plates at a density of 8×10^3 cells per well in 100 μL of culture medium, excluding Geneticin. Compound was serially diluted in 100% DMSO and then added to the cells at a 1:200 dilution, achieving a final concentration of 0.5% DMSO and a total volume of 200 μL. Plates were incubated at 37° C. for 3 days, after which culture medium was removed and cells were lysed in lysis buffer provided by Promega's luciferase assay system. Following the manufacturer's instruction, 100 μL of luciferase substrate was added to the lysed cells and luciferase activity was measured in a TopCount luminometer.

HCV Δ21 NS5b polymerase = biological target: T1, HCV Δ21 NS5b polymerase (Hepatitis C virus genotype 1b, UniProt Q9WMX2); test: HCV IC50 determination: NS5b polymerase assay; format: biochemical; conditions: triphosphates of the listed examples, 35° C., 90 min
T1 construct: 75 nM HCV Δ21 NS5b polymerase
Method: Assay Protocol: NS5b polymerase assay (40 μL) was assembled by adding 28 μL polymerase mixture (final concentration: 50 mM Tris-HCl at pH 7.5, 10 mM KCL, 5 mM MgCl2, 1 mM DTT, 10 mM EDTA, 4 ng/μL of RNA template, and 75 nM HCV Δ21 NS5b polymerase) to assay plates followed by 4 μL of compound dilution. The polymerase and compound were pre-incubated at 35° C. for 10 minute before the addition of 8 μL of nucleotide substrate mixture (33P-α-labeled competing nucleotide at KM and 0.5 mM of the remaining three nucleotides). The assay plates were covered and incubated at 35° C. for 90 min. Reactions were then filtered through 96-well DEAE-81 filter plates via vacuum. The filter plates were then washed under vacuum with multiple volumes of 0.125 M NaHPO4, water, and ethanol to remove unincorporated label. Plates were then counted on TopCount to assess the level of product synthesis over background controls. The IC50 value was determined using Prism fitting program.

[1] = replicon cells, 3 days at 37° C., luciferase activity, read-out: EC50

Molecule	EC50 (HCV replicon cells; [1]) [µM]	EC50 (HCV replicon cells) [µM]	also measured
CNc1ncnn2c([C@@H]3O[C@H](CO)[C@@H](O)[C@@]3(C)O)cnc12 [Compound 17]	< 10	–	–
C[C@@]1(O)[C@H](O)[C@@H](CO)O[C@H]1c1cnc2c(N)ncnn12 [Compound 1, (2S,3R,4R,5 R)-2-(4-aminoimidazo[1,2-f][1,2,4]triazin-7-yl)-5-(hydroxymethyl)-3-methyl-tetrahydrofuran-3,4-diol]	< 10	–	–
(2S,3R,4R,5 R)-2-(4-aminoimidazo[1,2-f][1,2,4]triazin-7-yl)-5-(hydroxymethyl)-3-methyl-tetrahydrofuran-3,4-diol [Compound 1]	–	–	IC50 (HCV Δ21 NS5b polymerase): < 10 µM
CC(C)OC(=O)[C@H](C)NP(=O)(OC[C@H]1O[C@@H](c2nnc3c(=O)[nH]c(N)nn23)[C@](C)(O)[C@@H]1O)Oc1ccc(Cl)cc1 (stereo partly drawn) [Compound 9]	–	< 250	–
C[C@@]1(O)[C@H](O)[C@@H](CO)O[C@H]1c1cnc2c(N)nc(N)nn12 [Compound 3]	< 250	–	–
CNc1ncnn2c([C@@H]3O[C@H](COP(=O)(OCCSC(=O)C(C)(C)C)OCCSC(=O)C(C)(C)C)[C@@H](O)[C@@]3(C)O)cnc12 [Compound 18]	–	< 10	–
